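Growth conditions: 96-well plates. Treatment: test compound, 48 hours, 5 concentrations. Analysis: linear interpolation between bracketing concentrations; unreached endpoints set to highest concentration. TGI marks complete inhibition of growth.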
Tests used:
Assay in all cases: NCI anticancer screen, dose series, 48 h
NCI-H226 lung = system: NCI-H226 lung
HOP-62 NSCLC = system: HOP-62 NSCLC
OVCAR-4 ovarian = system: OVCAR-4 ovarian
SNB-19 CNS = system: SNB-19 CNS
SK-OV-3 ovarian = system: SK-OV-3 ovarian
SF-539 CNS = system: SF-539 CNS
HCT-116 colon = system: HCT-116 colon
786-0 renal = system: 786-0 renal
SN12C renal = system: SN12C renal
M19-MEL melanoma = system: M19-MEL melanoma
KM12 colon = system: KM12 colon
OVCAR-3 ovarian = system: OVCAR-3 ovarian
KM20L2 colon = system: KM20L2 colon
TK-10 renal = system: TK-10 renal
HCC-2998 colon = system: HCC-2998 colon
SK-MEL-28 melanoma = system: SK-MEL-28 melanoma
RPMI-8226 leukemia = system: RPMI-8226 leukemia
SF-295 CNS = system: SF-295 CNS
COLO 205 colon = system: COLO 205 colon
UO-31 renal = system: UO-31 renal
HOP-18 NSCLC = system: HOP-18 NSCLC
HCT-15 colon = system: HCT-15 colon
DLD-1 colon = system: DLD-1 colon
LOX IMVI melanoma = system: LOX IMVI melanoma
SNB-75 CNS = system: SNB-75 CNS
IGROV1 ovarian = system: IGROV1 ovarian
RXF-631 renal = system: RXF-631 renal
DMS 114 small cell lung = system: DMS 114 small cell lung
A549 NSCLC = system: A549 NSCLC
HT29 colon = system: HT29 colon
HL-60(TB) leukemia = system: HL-60(TB) leukemia
NCI-H522 lung = system: NCI-H522 lung
EKVX NSCLC = system: EKVX NSCLC
CAKI-1 renal = system: CAKI-1 renal
SNB-78 CNS = system: SNB-78 CNS
MOLT-4 leukemia = system: MOLT-4 leukemia
A498 renal = system: A498 renal
M14 melanoma = system: M14 melanoma
SK-MEL-5 melanoma = system: SK-MEL-5 melanoma
UACC-62 melanoma = system: UACC-62 melanoma
CCRF-CEM leukemia = system: CCRF-CEM leukemia
ACHN renal = system: ACHN renal
OVCAR-5 ovarian = system: OVCAR-5 ovarian
UACC-257 melanoma = system: UACC-257 melanoma
K-562 leukemia = system: K-562 leukemia
U251 CNS = system: U251 CNS
NCI-H23 lung = system: NCI-H23 lung
LXFL 529 NSCLC = system: LXFL 529 NSCLC
SW-620 colon = system: SW-620 colon
SK-MEL-2 melanoma = system: SK-MEL-2 melanoma
MALME-3M melanoma = system: MALME-3M melanoma
NCI-H460 lung = system: NCI-H460 lung
SF-268 CNS = system: SF-268 CNS
RXF 393 renal = system: RXF 393 renal
DMS 273 small cell lung = system: DMS 273 small cell lung
SR leukemia = system: SR leukemia
OVCAR-8 ovarian = system: OVCAR-8 ovarian

## C[N+](C)(C)CC(=O)N/N=C(/C(=O)Nc1ccc(Br)cc1)C1C(=O)NC(=O)NC1=O
NCI-H226 lung
  TGI: > 100 µM
HOP-62 NSCLC
  TGI: > 100 µM
OVCAR-4 ovarian
  TGI: > 100 µM
SNB-19 CNS
  TGI: > 100 µM
SK-OV-3 ovarian
  TGI: > 100 µM
SF-539 CNS
  TGI: > 100 µM
HCT-116 colon
  TGI: > 100 µM
786-0 renal
  TGI: > 100 µM
SN12C renal
  TGI: > 100 µM
M19-MEL melanoma
  TGI: > 100 µM
KM12 colon
  TGI: > 100 µM
OVCAR-3 ovarian
  TGI: > 100 µM
KM20L2 colon
  TGI: > 100 µM
TK-10 renal
  TGI: > 100 µM
HCC-2998 colon
  TGI: > 100 µM
SK-MEL-28 melanoma
  TGI: > 100 µM
RPMI-8226 leukemia
  TGI: > 100 µM
SF-295 CNS
  TGI: > 100 µM
COLO 205 colon
  TGI: > 100 µM
UO-31 renal
  TGI: > 100 µM
HOP-18 NSCLC
  TGI: > 100 µM
HCT-15 colon
  TGI: > 100 µM
DLD-1 colon
  TGI: > 100 µM
LOX IMVI melanoma
  TGI: > 100 µM
SNB-75 CNS
  TGI: > 100 µM
IGROV1 ovarian
  TGI: > 100 µM
RXF-631 renal
  TGI: > 100 µM
DMS 114 small cell lung
  TGI: > 100 µM
A549 NSCLC
  TGI: > 100 µM
HT29 colon
  TGI: > 100 µM
HL-60(TB) leukemia
  TGI: > 100 µM
NCI-H522 lung
  TGI: > 100 µM
EKVX NSCLC
  TGI: > 100 µM
CAKI-1 renal
  TGI: > 100 µM
SNB-78 CNS
  TGI: > 100 µM
MOLT-4 leukemia
  TGI: > 100 µM
A498 renal
  TGI: > 100 µM
M14 melanoma
  TGI: > 100 µM
SK-MEL-5 melanoma
  TGI: > 100 µM
UACC-62 melanoma
  TGI: > 100 µM
CCRF-CEM leukemia
  TGI: > 100 µM
ACHN renal
  TGI: > 100 µM
OVCAR-5 ovarian
  TGI: > 100 µM
UACC-257 melanoma
  TGI: > 100 µM
K-562 leukemia
  TGI: > 100 µM
U251 CNS
  TGI: > 100 µM
NCI-H23 lung
  TGI: > 100 µM
LXFL 529 NSCLC
  TGI: > 100 µM
SW-620 colon
  TGI: > 100 µM
SK-MEL-2 melanoma
  TGI: > 100 µM
MALME-3M melanoma
  TGI: > 100 µM
NCI-H460 lung
  TGI: > 100 µM
SF-268 CNS
  TGI: > 100 µM
RXF 393 renal
  TGI: > 100 µM
DMS 273 small cell lung
  TGI: > 100 µM
SR leukemia
  TGI: > 100 µM

## O=C1/C=C(/c2ccc(O)cc2)[C@@H](O)Cc2ccc(O)cc2O1
NCI-H226 lung
  TGI: 89.6 µM
HOP-62 NSCLC
  TGI: > 100 µM
OVCAR-4 ovarian
  TGI: > 100 µM
SNB-19 CNS
  TGI: > 100 µM
SK-OV-3 ovarian
  TGI: > 100 µM
SF-539 CNS
  TGI: > 100 µM
HCT-116 colon
  TGI: > 100 µM
786-0 renal
  TGI: > 100 µM
SN12C renal
  TGI: > 100 µM
M19-MEL melanoma
  TGI: > 100 µM
KM12 colon
  TGI: > 100 µM
OVCAR-3 ovarian
  TGI: > 100 µM
KM20L2 colon
  TGI: > 100 µM
TK-10 renal
  TGI: > 100 µM
SF-295 CNS
  TGI: > 100 µM
COLO 205 colon
  TGI: > 100 µM
UO-31 renal
  TGI: > 100 µM
HCT-15 colon
  TGI: > 100 µM
DLD-1 colon
  TGI: > 100 µM
LOX IMVI melanoma
  TGI: > 100 µM
IGROV1 ovarian
  TGI: > 100 µM
RXF-631 renal
  TGI: > 100 µM
DMS 114 small cell lung
  TGI: > 100 µM
A549 NSCLC
  TGI: > 100 µM
HT29 colon
  TGI: > 100 µM
NCI-H522 lung
  TGI: > 100 µM
EKVX NSCLC
  TGI: > 100 µM
OVCAR-8 ovarian
  TGI: > 100 µM
CAKI-1 renal
  TGI: > 100 µM
SNB-78 CNS
  TGI: > 100 µM
A498 renal
  TGI: 86.4 µM
M14 melanoma
  TGI: > 100 µM
SK-MEL-5 melanoma
  TGI: > 100 µM
UACC-62 melanoma
  TGI: > 100 µM
ACHN renal
  TGI: > 100 µM
OVCAR-5 ovarian
  TGI: > 100 µM
UACC-257 melanoma
  TGI: > 100 µM
U251 CNS
  TGI: > 100 µM
NCI-H23 lung
  TGI: > 100 µM
LXFL 529 NSCLC
  TGI: > 100 µM
SW-620 colon
  TGI: > 100 µM
SK-MEL-2 melanoma
  TGI: > 100 µM
MALME-3M melanoma
  TGI: > 100 µM
NCI-H460 lung
  TGI: > 100 µM
SF-268 CNS
  TGI: > 100 µM
SR leukemia
  TGI: > 100 µM
